{
  "source": "patent US10265276B2",
  "about": "“Pharmaceutical composition for preventing or treating arthritis or inflammatory disease containing 2-methoxy-4-(3-(4-methoxyphenyl)propyl-1-en-1-yl)phenol as active ingredient” (CHUNGBUK NATIONAL UNIVERSITY INDUSTRY-ACADEMIC COOPERATION …, priority 2015, dated 2019)",
  "key": {"[1]": {"tested_on": "RAW 264.7 cells", "experiment": "Cell viability (MTT assay) in RAW 264.7 cells", "assay_type": "cell-based, mouse", "conditions": "up to 4 mg/mL", "procedure": "As mouse macrophages, RAW 264.7 macrophages were cultured in a DMEM medium supplemented with 10% FBS. […] of the medium was treated with MMPP, and then stabilized for an hour.\nAn MTT reagent was added at a concentration of 0.5 mg/mL, and the cells were cultured at 37° C. in an incubator. After the medium was completely removed when 70% of the cells formed crystals, […] of DMSO was added to dissolve the crystals. Subsequently, the optical density was measured at 550 nm.\nMorphological changes of the cells were observed under a microscope, and the cell viability was determined using an MTT assay."}, "[2]": {"tested_on": "STAT3", "experiment": "STAT3 phosphorylation in LPS-treated RAW 264.7 cells", "assay_type": "cell-based, mouse", "procedure": "12. Western blotting assay: A whole cell lysate, a cytosolic extract, and a nuclear extract were obtained. SDS-PAGE and Western blotting assays were carried out as disclosed in published Documents 1 and 2. Simply speaking, the cells were seeded in a 6-well plate at a density of 5×10^5 cells/well, and cultured for 24 hours. Thereafter, the cells were treated with MMPP or DMSO for 24 hours. After the treatment, the cells were washed twice with PBS, and then lyzed. Proteins of the lyzed cells were separated on 10 to 15% SDS-PAGE. The proteins were transferred to a PVDF membrane, and the PVDF membrane was blocked at room temperature for 2.5 hours in a TB S/T buffer containing 5% skim milk. The membrane to which the proteins were transferred was analyzed using, as primary antibodies, murine monoclonal antibodies against Cdk2, Cdk4, Cdk6, cyclin B1, cyclin D1, cyclin E1, Bcl-2, Bax, caspase-3, caspase-8, STAT3, phspho-STAT3, (3-actin, and histone hl. Expression of the proteins was visualized using a chemiluminescence reagent (Amersham Pharmacia Biotech, Inc., Buckinghamshire, UK), and measured using a digital chemiluminescence imaging system equipped with a CCD camera (Fusion-FX, Fisher BioTech, Ltd., Wembley, Australia). […]"}, "[3]": {"molecular_target": "T1, mutant STAT3 (T456A) (Mus musculus, UniProt P42227, T456A)", "T1 construct": "A coding region of Mus musculus STAT3 was amplified by PCR using full-length Mus musculus STAT3 cDNA as a template; host or cells: RAW264.7", "T1 sequence (P42227 whole entry T456A)": "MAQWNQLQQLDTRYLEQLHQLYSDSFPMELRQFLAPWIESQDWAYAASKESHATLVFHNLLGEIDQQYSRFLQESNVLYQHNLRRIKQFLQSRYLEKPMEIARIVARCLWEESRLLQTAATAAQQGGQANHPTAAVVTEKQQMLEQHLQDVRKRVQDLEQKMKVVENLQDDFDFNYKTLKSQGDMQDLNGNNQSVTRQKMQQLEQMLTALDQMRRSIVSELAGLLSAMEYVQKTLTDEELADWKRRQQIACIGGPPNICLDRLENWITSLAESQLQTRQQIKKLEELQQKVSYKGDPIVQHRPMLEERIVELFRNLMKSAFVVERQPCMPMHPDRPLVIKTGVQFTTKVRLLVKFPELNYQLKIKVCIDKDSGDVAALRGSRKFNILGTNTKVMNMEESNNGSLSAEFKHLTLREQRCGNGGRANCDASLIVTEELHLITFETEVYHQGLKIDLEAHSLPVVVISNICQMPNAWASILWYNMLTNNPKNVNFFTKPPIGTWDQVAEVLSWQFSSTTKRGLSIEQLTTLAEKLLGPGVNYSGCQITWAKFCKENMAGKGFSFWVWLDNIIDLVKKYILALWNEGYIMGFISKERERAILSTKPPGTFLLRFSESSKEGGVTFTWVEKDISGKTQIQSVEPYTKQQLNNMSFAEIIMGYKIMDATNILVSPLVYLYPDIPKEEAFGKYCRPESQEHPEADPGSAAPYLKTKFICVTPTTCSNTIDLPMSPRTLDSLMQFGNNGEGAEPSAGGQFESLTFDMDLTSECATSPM", "experiment": "Pull-down assay with mutant STAT3", "assay_type": "binding", "conditions": "compared to the STAT3", "text": "As a method for isolating a protein complex, a pull-down assay is an assay for checking a protein-protein interaction. To identify a protein interacting with MMPP, MMPP was bound to […] epoxy-activated Sepharose 6B (Sigma, St Louis, Mo., United States).\n2. Construction of plasmid: A coding region of Mus musculus STAT3 was amplified by PCR using full-length Mus musculus STAT3 cDNA as a template. The purified PCR product was doubly digested with EcoRI and XhoI, and then subcloned into a pcDNA3.1 vector. The pcDNA3.1 plasmid includes a cytomegalovirus promoter, a pUC origin of replication, and an ampicillin-resistant gene. STAT3 (T456A) mutagenesis was performed at Cosmo Genetech Co., Ltd. (Seoul, Korea), and the mutations were systematically checked by sequencing. RAW264.7 cells were seeded in a 24-well plate at a density of 1×10^5 cells/well. The cells were grown for 24 hours to reach 90% confluence, and the cells were infected with the mutant STAT3 (T456A) plasmid (Cosmo Genetech Co., Ltd., Seoul, Korea) using a mixture of the plasmid and lipofectamine in PTI-MEN. The infected cells were treated with LPS (1 μg/mL), and different concentrations of MMPP (1 to 4 μg/mL) for 12 hours. The prepared samples were subjected to Western blotting.\nTo check the interaction between MMPP and STAT3, a pull-down assay was carried out. MMPP was conjugated to epoxy-activated Sepharose 6B. […]"}, "[4]": {"tested_on": "iNOS and COX-2", "experiment": "Western blotting of iNOS and COX-2 expression in LPS-induced RAW 264.7 cells", "assay_type": "cell-based, mouse", "design": "dose or concentration left out as unconfirmed", "conditions": "LPS and MMPP"}, "[5]": {"tested_on": "NF-κB and STAT3", "experiment": "EMSA and Western blotting of CAIA-induced ankle joint tissues", "assay_type": "in vivo, mouse", "procedure": "In addition, the DNA binding activities of NF-κB and STAT3 were determined by EMSA. The same amount of the total proteins (20 μg/Lane) was subjected to 10% SDS-PAGE, and STAT3, P-STAT3, p50, p65, IKK, 1 KB, and p-1lκB were detected through Western blotting. A β-actin protein or histone H was used as the control. As a result, it can be seen that MMPP inhibited the STAT3 DNA-binding activity (FIG. 12(A)), the NF-κB STAT3 DNA-binding activity (FIG. 12(B)), nuclear translocation of pSTAT3, p50 and p65, and phosphorylation of IkB, IKKb and IKKa in the CAIA-induced ankle joint tissues (FIGS. 12(C) and 12(D))"}, "[6]": {"tested_on": "NF-κB", "experiment": "EMSA and Western blotting of the NF-κB pathway in LPS-treated RAW 264.7 cells", "assay_type": "cell-based, mouse", "procedure": "10. EMSA assay (Electromobility shift assay): RAW 264.7 cells were cultured for 24 hours to perform an EMSA assay. The relative density of a protein band was scanned using MyImage, and qualitatively analyzed using Labworks 4.0 software (UVP, Inc.).\n12. Western blotting assay: A whole cell lysate, a cytosolic extract, and a nuclear extract were obtained. SDS-PAGE and Western blotting assays were carried out as disclosed in published Documents 1 and 2. Simply speaking, the cells were seeded in a 6-well plate at a density of 5×10^5 cells/well, and cultured for 24 hours. Thereafter, the cells were treated with MMPP or DMSO for 24 hours. After the treatment, the cells were washed twice with PBS, and then lyzed. Proteins of the lyzed cells were separated on 10 to 15% SDS-PAGE. The proteins were transferred to a PVDF membrane, and the PVDF membrane was blocked at room temperature for 2.5 hours in a TB S/T buffer containing 5% skim milk. The membrane to which the proteins were transferred was analyzed using, as primary antibodies, murine monoclonal antibodies against Cdk2, Cdk4, Cdk6, cyclin B1, cyclin D1, cyclin E1, Bcl-2, Bax, caspase-3, caspase-8, STAT3, phspho-STAT3, (3-actin, and histone hl. Expression of the proteins was visualized using a chemiluminescence reagent (Amersham Pharmacia Biotech, Inc., Buckinghamshire, UK), and measured using a digital chemiluminescence imaging system equipped with a CCD camera (Fusion-FX, Fisher BioTech, Ltd., Wembley, Australia).\nRAW 264.7 cells were treated with LPS alone or a combination of LPS and MMPP for 30 minutes, and the DNA binding activities of NF-κB and STAT3 were examined using an electrophoretic mobility shift assay (EMSA). Also, the same amount of the total proteins (20 μg/Lane) was subjected to 10% SDS-PAGE, and STAT3, P-STAT3, p50, p65, IKK, lκB, and p-lκB were detected through Western blotting. A (3-actin protein or histone H was used as the control."}, "[7]": {"conditions": "LPS-induced, co-treated with MMPP"}},
  "data": [
    {"smiles": "COc1ccc(C/C=C/c2ccc(O)c(OC)c2)cc1", "note": "[MMPP, 2-methoxy-4-(3-(4-methoxyphenyl)prop-1-en-1-yl)phenol]", "values": [
      {"measurement": "toxicity", "setting": "[1]; RAW 264.7 cells", "result": "no toxicity"},
      {"measurement": "viability of the LPS-induced RAW 264.7 cells", "setting": "[1]", "result": "not affected"},
      {"measurement": "LPS-induced phosphorylation of STAT3", "setting": "[2]", "result": "inhibited"},
      {"measurement": "binding of MMPP to mutant STAT3 Thr456A", "setting": "[3]", "result": "reduced"},
      {"measurement": "iNOS and COX-2 expression", "setting": "[4]", "result": "reduced in a concentration-dependent manner"},
      {"measurement": "NF-κB STAT3 DNA-binding activity", "setting": "[5]", "result": "inhibited"},
      {"measurement": "STAT3 DNA-binding activity", "setting": "[5]", "result": "inhibited"},
      {"measurement": "nuclear translocation of pSTAT3, p50 and p65", "setting": "[5]", "result": "inhibited"},
      {"measurement": "phosphorylation of IkB, IKKb and IKKa", "setting": "[5]", "result": "inhibited"},
      {"measurement": "LPS-induced phosphorylation of IKKb and IKKa", "setting": "[6]", "result": "inhibited"},
      {"measurement": "DNA binding activity and transcriptional activity of NF-κB", "setting": "[6]; [7]", "result": "reduced in a concentration-dependent manner"},
      {"measurement": "IκB degradation", "setting": "[6]; [7]", "result": "reduced in a concentration-dependent manner"},
      {"measurement": "nuclear translocation of NF-κB subunits p65 and p50", "setting": "[6]; [7]", "result": "reduced in a concentration-dependent manner"}
    ]}
  ]
}
